From PubChem BioAssay (NCI)
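Briefly, cells in 96-well plates were exposed to five compound concentrations for 48 h, and endpoints were estimated by linear interpolation. The concentration for 50% growth inhibition is given as GI50. TGI marks complete inhibition of growth.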

Assays:
Test in all cases: inhibition of tumour cell growth, NCI panel, 48 h
K-562 leukemia = tested on: K-562 leukemia
MOLT-4 leukemia = tested on: MOLT-4 leukemia
DMS 273 small cell lung = tested on: DMS 273 small cell lung
CCRF-CEM leukemia = tested on: CCRF-CEM leukemia
SNB-78 CNS = tested on: SNB-78 CNS
NCI/ADR-RES ovarian = tested on: NCI/ADR-RES ovarian
NCI-H23 lung = tested on: NCI-H23 lung
NCI-H460 lung = tested on: NCI-H460 lung
DLD-1 colon = tested on: DLD-1 colon
786-0 renal = tested on: 786-0 renal
T-47D breast = tested on: T-47D breast
MCF7 breast = tested on: MCF7 breast

Row | Compound | TGI (K-562 leukemia) | TGI (MOLT-4 leukemia) | TGI (DMS 273 small cell lung) | TGI (CCRF-CEM leukemia) | TGI (SNB-78 CNS) | TGI (NCI/ADR-RES ovarian) | TGI (NCI-H23 lung) | TGI (NCI-H460 lung) | TGI (DLD-1 colon) | TGI (786-0 renal) | TGI (T-47D breast) | TGI (MCF7 breast) | GI50 (K-562 leukemia) | GI50 (MOLT-4 leukemia) | GI50 (CCRF-CEM leukemia) | GI50 (NCI-H460 lung) | GI50 (NCI/ADR-RES ovarian) | GI50 (MCF7 breast)
1 | Cc1cc(O)c2c(c1O)C(=O)C13C(=C2O)C(=O)C2C(O)C1C1C(O)C3C(=O)C3=C(O)c4c(O)cc(C)c(O)c4C(=O)C321 (centres undefined) | 0.56 µM | 0.483 µM | 0.621 µM | 0.613 µM | 0.722 µM | 12.2 µM | – | – | – | – | – | – | – | – | – | – | – | –
2 | O=C(Nc1nc2ccccc2n1Cc1ccccc1)NC12CC3CC(CC(C3)C1)C2 | > 100 µM | > 100 µM | 55.1 µM | > 100 µM | 49.1 µM | – | > 100 µM | > 100 µM | > 100 µM | 92.9 µM | – | – | – | – | – | – | – | –
3 | O=C1O/C(=C(\Br)c2cccc3ccccc23)c2ccccc21 | > 68.4 µM | 46.7 µM | > 54.9 µM | 46.1 µM | > 100 µM | – | > 55.8 µM | > 73 µM | > 66.7 µM | 31.4 µM | – | – | – | – | – | – | – | –
4 | O=C1CSC(/C(=C\c2ccc(Cl)cc2)c2nc3ccccc3[nH]2)=N1 | > 100 µM | > 100 µM | 37.6 µM | > 75.7 µM | > 100 µM | 36.9 µM | 30.7 µM | 32.2 µM | 32.5 µM | 26.4 µM | 31.7 µM | 28.7 µM | – | – | – | – | – | –
5 | C=C1C(=O)OC2(C)C3CCC(C3)C12 (centres undefined) | > 100 µM | > 100 µM | > 100 µM | > 100 µM | > 100 µM | – | > 100 µM | > 100 µM | > 100 µM | > 100 µM | – | – | – | – | – | – | – | –
6 | NC(=O)c1nnc2cc(F)ccc2c1N | > 100 µM | > 100 µM | – | > 100 µM | – | > 100 µM | > 100 µM | > 100 µM | – | > 100 µM | > 100 µM | > 100 µM | – | – | – | – | – | –
7 | Cc1nc2c(n1C(C)(C)C)C(=O)c1ccccc1C2=O | > 100 µM | > 100 µM | > 100 µM | > 100 µM | > 100 µM | – | > 100 µM | > 100 µM | > 100 µM | > 100 µM | – | – | – | – | – | – | – | –
8 | CC(C)=CC(=O)O[C@H]1C(=O)O[C@@H]2C[C@H]3[C@H](C)C(=O)C(O[C@@H]4O[C@H](CO)[C@@H](O)[C@H](O)[C@H]4O)=C[C@]3(C)[C@H]3[C@@H](O)[C@H](O)[C@]4(C(=O)O)OC[C@]32[C@@H]14 | > 100 µM | > 100 µM | – | > 100 µM | – | > 100 µM | > 100 µM | > 100 µM | – | > 100 µM | > 100 µM | 66.1 µM | 25.8 µM | 22.4 µM | 36.3 µM | 32 µM | > 100 µM | 22.2 µM
9 | CC(C)SC(C)(NC(=O)C1C(C)(C)CCC1(C)C)C(=O)O (centres undefined) | > 100 µM | > 100 µM | – | > 100 µM | – | > 100 µM | > 100 µM | > 100 µM | – | > 100 µM | > 100 µM | > 100 µM | – | – | – | – | – | –
10 | Cc1c(C(=O)N2CCN(c3ccc([N+](=O)[O-])cc3)CC2)[n+](=O)c2cc(Cl)c(Cl)cc2n1[O-] | > 100 µM | > 100 µM | – | > 100 µM | – | 32.7 µM | 32 µM | 56.7 µM | – | 30.8 µM | 45 µM | 33.2 µM | – | – | – | – | – | –
11 | CNc1ccc(-c2nc3cc(C)ccc3o2)cc1 | > 100 µM | > 100 µM | – | > 100 µM | – | > 100 µM | > 100 µM | > 100 µM | – | > 100 µM | > 100 µM | > 100 µM | – | – | – | – | – | –
12 | CN1C(=S)C(c2ccccc2)Sc2ccccc21 (centres undefined) | > 100 µM | > 100 µM | – | > 100 µM | – | > 100 µM | > 100 µM | > 100 µM | – | > 100 µM | > 100 µM | > 100 µM | – | – | – | – | – | –
13 | CCOC(=O)/C(=C\c1ccc(N(C)C)cc1)S(=O)(=O)C(F)(F)C(F)(F)C(F)(F)C(F)(F)F | > 100 µM | > 100 µM | – | > 100 µM | – | > 100 µM | > 100 µM | > 100 µM | – | > 100 µM | > 100 µM | > 100 µM | – | – | – | – | – | –
14 | O=C(Nc1cccc(C(F)(F)F)c1)O/N=C(/Cl)CCl | > 100 µM | 79.6 µM | – | > 100 µM | – | > 100 µM | > 100 µM | > 100 µM | – | > 100 µM | > 100 µM | > 100 µM | – | – | – | – | – | –
15 | CCOC(=O)Nc1c(C#N)[n+]([O-])c2cc(Cl)c(Cl)cc2[n+]1[O-] | 39.9 µM | 28.7 µM | – | 22.9 µM | – | 52.2 µM | 53.9 µM | 34.5 µM | – | 41.7 µM | 54.2 µM | 41.3 µM | – | – | – | – | – | –
16 | COc1cccc(-c2ccc3c4c2O[C@H]2c5[nH]c6ccccc6c5C[C@@]5(O)[C@@H](C3)N(CC3CC3)CC[C@]425)c1 | 4.98 µM | 9.34 µM | – | > 100 µM | – | 5.21 µM | 5.27 µM | 3.22 µM | – | 3.09 µM | 4.23 µM | 3.06 µM | – | – | – | – | – | –
17 | NC(=Nc1ccc(O)cc1)S(=O)(=O)O | > 100 µM | > 100 µM | – | > 100 µM | – | > 100 µM | > 100 µM | > 100 µM | – | > 100 µM | > 100 µM | > 100 µM | – | – | – | – | – | –
